Columns and labels:
[1] = test system: autophagy flux (LC3-II) in RBE cell line; assay: Autophagy flux, LC3-II immunoblot with/without Bafilomycin, RBE cell line; assay type: cell-based; settings: 24 hours of treatment
Method: The capacity of compound 2-2 to modulate the cellular autophagy processes was also evaluated in the intrahepatic cholangiocarcinoma cell line RBE.
The RBE cell line was maintained in RPMI (Roswell Park Memorial Institute) 1640 (Cat #L0498-500, Dutscher) containing 1% penicillin-streptomycin (Cat #P06-07100, Dutscher) and 10% FBS (Cat #SV30160.03C, Dutscher). RBE Cells line were cultured at 37° C. with 5% CO2.
The day before the experiment, 6-well plates with 125,000 cells in 1.8 mL of medium per well were prepared.
Compound 2-2 was dissolved with filtrated DMSO to make a 10 mM stock solution and serial working solutions (10× solutions) at 9 μM, 18 μM and 36 μM were prepared with the diluent (=culture medium with 0.12% DMSO) to maintain a constant percentage of DMSO. Bafilomycin [CAS 88899-55-2] (Cat #B1793-10UG, Sigma) was dissolved with DMSO to make a 160.6 μM stock solution and a working solution (200× solution) was prepared with the culture medium at 20.1 μM. A “Baf diluent” solution corresponding to the dilution of DMSO in the Bafilomycin 200× solution (culture medium with 12.5% DMSO) is also prepared. […]
After 24 hours of cell line treatment, the medium was removed from each well. […] Total protein concentration was assessed using the BCA reagent (Cat #23227, ThermoFischer) and cellular lysates were stored at −80° C. until western-blot analysis. […]

[2] = test system: diethyl nitrosamine (DEN) cirrhotic rat model of liver fibrosis; assay: DEN induced cirrhosis in rats, study 2: Sirius red quantification of liver fibrosis; assay type: in vivo
Method: A second in vivo experiment, with the same diethyl nitrosamine (DEN) cirrhotic rat animal model of liver fibrosis, was performed including compound 2-2 (base form of compound 2-3) with discontinued oral dosing schedule and compound 5-3 with daily oral exposure. Compounds 2-2 and 5-3 were administered p.o. by gavage (oral gavage) once daily during 7 weeks.
Rats were treated with DEN for 13 weeks (intra-peritoneal injections (i.p.) of 50 mg/kg/week) and then treated according to the Table 10 dosage schedule during 7 weeks. At the end of the study, all animals were sacrificed using CO2 and rat livers were collected for analysis. The quantification of the liver fibrotic tissue was evaluated by Sirius red staining of rat liver sections.
Group 1 contained 6 animals which were daily dosed (q.d.) by oral gavage (per os, p.o.) with the vehicle during 7 weeks.
Group 2 contained 8 animals and the corresponding animals were daily dosed (q.d.) by oral gavage (per os, p.o.) with compound 2-2 during 4 weeks at 20 mg/kg/day and then during 3 weeks at 20 mg/kg every 2 days (q.o.d.: quaque altera die, one day treated, on day untreated).
Group 3 contained 8 animals and the corresponding animals were daily dosed (q.d.) by oral gavage (per os, p.o.) with compound 2-2 during 3 weeks at 20 mg/kg/day, then 2 weeks of treatment free period, and were then daily dosed (q.d.) by oral gavage (per os, p.o.) with compound 2-2 during 2 weeks at 20 mg/kg/day.
Group 4 contained 8 animals and the corresponding animals were daily dosed (q.d.) by oral gavage (per os, p.o.) with compound 5-3 during 4 weeks at 20 mg/kg/day, and were then daily dosed (q.d.) by oral gavage (per os, p.o.) with compound 5-3 during 3 weeks at 15 mg/kg/day.
Compound 2-2 and 5-3 were formulated in water for injection acidified with hydrochloric acid to pH 4.

Structure (SMILES): CC(C)(C)NC1CCN(c2cc(NCc3ccc(Cl)cc3)nc3ccccc23)CC1 [2-2, 2-(4-chlorobenzylamino)-4-(4-tert-butylaminopiperidin-1-yl)-quinoline]
- accumulation of the LC3-II form [1]: significantly induced a dose-dependent accumulation of the LC3-II form
- autophagic flux (LC3-II Baf+/Baf− ratio) [1]: induced an inhibition of the autophagic flux
- reduction of the level of collagen fibers deposition (Sirius red) compared to the control group ([2]; group 2 (20 qd/qod): 20 mg/kg p.o. q.d. 4 weeks then q.o.d. 3 weeks, after 13 weeks DEN, p=0.04): 23%
- reduction of the level of collagen fibers deposition (Sirius red) compared to the control group ([2]; group 3 (20 3WON/2WOFF/2WON): 20 mg/kg p.o. q.d. 3 weeks, 2 weeks off, q.d. 2 weeks, p=0.01): 29%
